Test results published in patent US20240327433A1, “PYRIMIDOPYRAN COMPOUND” (Medshine Discovery Inc., priority 2021, published 2024).
Where a name gives a salt, the structure may show the parent alone.

How the values were obtained:
[1] = system: p-ERK in AGS cells; assay: Assay of p-ERK inhibition in AGS cells (HTRF); assay type: cell-based; conditions: Homo sapiens, 3 hours incubation
Description: • 1) AGS cells were inoculated in a transparent 96-well cell culture plate, and each well contained […] of cell suspension and 10000 cells. The cell plate was inoculated in a carbon dioxide incubator at 37° C. overnight; • 2) After completion of the incubation, the cell supernatant was discarded. 80 μL of medium containing 0.02% serum was added to each well. The cell plate was incubated in a carbon dioxide incubator at 37° C. overnight; • 3) 2 μL of the compound was weighed and added to 78 μL of the cell medium. After the mixture was mixed thoroughly, 20 μL of the solution of compound was weighed and added to the corresponding well of the cell plate. The cell plate was placed back to the carbon dioxide incubator and incubated for another 3 hours; • 4) After completion of the incubation, the cell supernatant was discarded. 50 μL of 1× cell lysate was added to each well. […] The mixture was incubated at room temperature for at least 4 hours; • 7) After completion of the incubation, HTRF was read with multi-label analyzer: excitation: 320 nm, emission: 615 nm, 665 nm; • 8). IC50 of the compound to be assayed was calculated.

[2] = Plasma protein binding (PPB), equilibrium dialysis, human plasma; assay type: in vitro ADME; conditions: 2 μM, unbound rate
Description: (§1) The protein binding rates of the compound in the plasma of CD-1 mouse, Sprague-Dawley rat, Beagle dog, cynomolgus monkey and human were determined by equilibrium dialysis method.
(§2) The plasmas of the above-mentioned five species were formulated to plasma samples with a compound concentration of 2 μM. The plasma samples were placed in a 96-well rapid equilibrium dialysis device, and dialyzed against phosphate buffered saline at 37±1° C. for 4 h. In this assay, warfarin was used as a control compound. The concentrations of analytes in plasma and dialysis buffer were determined by LC-MS/MS mothed.

[3] = Plasma protein binding (PPB), equilibrium dialysis, Beagle dog plasma; assay type: in vitro ADME; conditions: 2 μM, unbound rate
Description: as §1, §2

[4] = system: xenograft tumor of human colon cancer GP2D; assay: Pharmacodynamics in vivo: Balb/c nude mouse subcutaneous xenograft of human colon cancer GP2D cells; conditions: PO, BID*20, 20th day
Description: A Balb/c nude mouse model of subcutaneously xenograft tumor of human colon cancer GP2D cell was established. 0.2 mL (2×10^6) of GP2D cells (Matrigel was added, and volume ratio was 1:1) were inoculated subcutaneously on the right back of each mouse. When the average tumor volume reached 149 mm^3, the administration was started by group, with 6 mice in each group. On the day of the assay, the animals were administered the corresponding drugs according to the corresponding groups. The first group G1 was set as a negative control group, which was given 5% DMSO+95%(10% HP-β-CD) alone by gavage administration. The second group G2 to the fourth group G4 were given compound 1 hydrochloride, and the dosage and protocol of administration were shown in Table 13.
During the assay, the body weight of animals and the tumor size were measured twice a week. Meanwhile clinical symptoms of animals were observed and recorded every day. Each administration was referenced to the most recent body weight of animals.
The length (a) and width (b) of a tumor were measured with a digital vernier caliper. The calculation formula of tumor volume (Tumor volume, TV) was: TV=a×b^2/2.

Cc1cc(N)c(F)c(C2Cc3nc(OC[C@@]45CCCN4C[C@H](F)C5)nc(N4CC5CCC(C4)N5)c3CO2)c1C(F)(F)F (stereo partly drawn) [Compound 1 hydrochloride]
IC50 [1]: 45 nM | Unbound PPB H [2]: 7.0% | Unbound PPB D [3]: 5.2% | Tumor volume inhibition rate TGI (%) ([4]; G2, 3 mg/kg): 19.4% | Tumor volume inhibition rate TGI (%) ([4]; G3, 10 mg/kg): 53.9% | Tumor volume inhibition rate TGI (%) ([4]; G4, 30 mg/kg): 83.7%
